Test results taken from patent US4018782A, “2,2-Dimethyl-3R-carboxy-6S- acylamido-1-oxa-4-aza-5R-bicyclo[3,2,0]heptan-7-ones” (Queen's University, priority 1974, dated 1977).

Experiments:
[1] = antibacterial activity (organism not stated); type: cell-based; conditions: at levels of 250 mcg./ml.
[2] = test system: S. lutea; assay: antibacterial activity (plate assay) vs S. lutea; type: cell-based
Protocol: The oxazoline (74 mg., 0.236 mmole) was dissolved in HMPT (1.5 ml.) and the solution was degassed with dry nitrogen for 0.5 hr. Then 0.83 ml. of a 0.612 M solution of t-BuSLi (0.508 mmole), prepared by method A, was added during 0.5 hr. and the mixture was stirred overnight. […] The characteristic peak of the oxazolinecarboxylic acid, 2-benzyl-6-(1'-carboxy-2'-methyl-prop-1'-enyl)-1-oxa-3,6-diaza-4S,5R-bicyclo [3,2,0] hept-2-ene-7-one, were absent from the spectrum.

CC(C)=C(C(=O)O)N1C(=O)[C@H]2N=C(Cc3ccccc3)O[C@H]21 [oxazoline carboxylic acid, 2-benzyl-6-(1'-carboxy-2'-methylprop-1'-enyl)-1-oxa-3,6-diaza-4S,5R-bicyclo [3.2.0] hept-2-en-7-one]
antibacterial activity at 250 mcg./ml. [1]: inactive

CC(Oc1ccc(Cl)cc1)C(=O)N[C@@H]1C(=O)N2[C@@H]1OC(C)(C)[C@@H]2C(=O)O (stereo partly drawn)
antibacterial activity vs. S. lutea [2]: high antibacterial activity

CC1(C)O[C@@H]2[C@H](N3C(=O)c4ccccc4C3=O)C(=O)N2[C@H]1C(=O)O [6-phthalimido oxapenicillin]
antibacterial activity versus S. lutea relative to phthalimidopenicillin ([2]; compared with phthalimidopenicillin): one-tenth the level of phthalimidopenicillin
